Columns and labels:
[1] = system: Human plasma Cohn fraction 1V-1 protein; assay: Turbidimetric test of protein insolubility induced by Fenton-like reaction (ferrous sulfate + H2O2), nephelometer; assay type: biochemical; settings: amino acid at 400 microMol/L; 100 microMol/L ferrous sulfate + 40 microMol/L H2O2; pH 5.7-5.8; 37° Celsius, 30 minutes
Procedure: Human plasma Cohn fraction 1V-1 protein solutions (predominately alpha glycoglobulins, rich in lipid—obtained from Sigma Chemical Co.) of 40 mg/dl in saline solutions (140 NaCl mMol/L) were employed at existing pHs of 5.7-5.8 without additional confounding non-protein buffer. A nephelometer measured the intensity of reflected Tydall light. Developed turbidities were measured to quantify the insolubities of the dissolved proteins that were induced by introducing 100 microMol/L of ferrous sulfate and 40 microMol/L of H2O2 with incubations at 37° Celsius for 30 minutes. Insolubilities were standardized as the percent of maximal possible induced turbidities by comparison to similar protein solutions after mixing with the protein-precipitating agent sulfosalicylic acid at 1.5 g/dL.

[2] = Case report: person taking L-citrulline capsules daily for 8 years; settings: donor one; long-term L-citrulline intake

NC(=O)NCCC[C@H](N)C(=O)O [L-citrulline]
mean inhibition of the insolubilities induced by the Fenton-like reactions [1]: did not inhibit
Fasting blood glucose [2]: within the normal range
Hematocrit [2]: 38.5%
blood hemoglobin [2]: 13.6 g/dL
total leucocyte count [2]: 6.800 /mcL

NC(=O)CC[C@H](N)C(=O)O [L-glutamine]
mean inhibition of the insolubilities induced by the Fenton-like reactions [1]: did not inhibit

N[C@@H](Cc1c[nH]cn1)C(=O)O [L-histidine free base, L-histidine]
mean inhibition of the insolubilities induced by the Fenton-like reactions [1]: 52.6%

— patent US20060046982A1, “Orthomolecular medical use of L-citrulline for capillary endothelial protection and adjacent cell protection in neurodegenerative disease” (priority 2004, published 2006)
